Experimental data reported in ChEMBL document CHEMBL3351580, “Pyrano-isochromanones as IL-6 inhibitors: synthesis, in vitro and in vivo antiarthritic activity” (J Med Chem, 2014).
Active and inactive are the calls of the source. The rule behind the calls is not given here.

How the values were obtained:
[1] = Inhibition of concanavalin A-induced cell proliferation of T cells (unknown origin) at 10 uM after 72 hrs by MTT assay; format: functional
Mus musculus [2] = assay: Immunosuppressive activity in BALB/c mouse assessed as reduction in SRBC-induced DTH response at 3 to 30 mg/kg, po administered once daily for 14 days measured 4 hrs post last dose; format: functional, organism-based
Mus musculus [3] = assay: Antiinflammatory activity in BALB/c mouse assessed as serum nitric oxide level at 100 mg/kg, po qd for 5 days followed by LPS challenge 1 hr after last compound dose on fifth day and measured 4 hrs post LPS challenge by Griess assay (reference value: 6.95 +/- 1.81 uM); format: functional
Mus musculus [4] = assay: Antiarthritic activity in DBA/1J mouse collagen-induced arthritis model assessed as reduction in IL6 level at 3 to 30 mg/kg, po administered once daily for 49 days starting from onset of disease and measured after 3 to 49 days of disease onset by ELISA method; format: functional, organism-based
THP-1 [5] = assay: Cytotoxicity against human THP1 cells after 48 hrs by MTT assay; format: cell-based; details: THP-1, 48 h
Mus musculus [6] = assay: Immunosuppressive activity in BALB/c mouse assessed as reduction in SRBC-induced humoral immunity by measuring IgM level at 3 to 30 mg/kg, po administered once daily for 14 days measured 4 hrs post last dose; format: functional, organism-based
THP-1 [7] = assay: Inhibition of LPS-induced IL-1beta production in human THP1 cells at 10 uM after 24 hrs; format: functional; details: THP-1, 24 h
Mus musculus [8] = assay: Antiinflammatory activity in BALB/c mouse assessed as serum IL6 level at 100 mg/kg, po qd for 5 days followed by LPS challenge 1 hr after last compound dose on fifth day and measured 4 hrs post LPS challenge by ELISA method (reference value: 410 +/- 95 pg/mL); format: functional
[9] = Apparent permeability from basolateral to apical side in human Caco2 cells; format: ADME, cell-based; details: Caco-2
CYP2C19 = CYP2C19 (Homo sapiens, UniProt P33261); assay: Inhibition of CYP2C19 (unknown origin) at 10 uM; format: ADME
CYP2C19, sequence (P33261 whole entry): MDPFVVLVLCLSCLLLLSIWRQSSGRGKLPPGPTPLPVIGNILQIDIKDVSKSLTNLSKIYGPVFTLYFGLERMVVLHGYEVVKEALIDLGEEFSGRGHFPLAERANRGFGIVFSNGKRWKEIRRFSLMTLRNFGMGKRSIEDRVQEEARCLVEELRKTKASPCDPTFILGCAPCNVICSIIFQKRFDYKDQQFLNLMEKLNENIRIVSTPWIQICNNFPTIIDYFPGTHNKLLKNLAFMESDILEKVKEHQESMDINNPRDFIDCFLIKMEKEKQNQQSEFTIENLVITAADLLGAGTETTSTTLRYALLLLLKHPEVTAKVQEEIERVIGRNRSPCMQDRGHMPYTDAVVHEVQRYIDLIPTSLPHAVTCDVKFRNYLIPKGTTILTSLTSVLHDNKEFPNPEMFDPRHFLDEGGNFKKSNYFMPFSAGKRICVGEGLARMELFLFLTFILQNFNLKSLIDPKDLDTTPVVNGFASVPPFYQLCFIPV

[10] = target: Inhibitor of NF-kappa-B kinase (IKK) (Homo sapiens) (UniProt O14920+O15111+Q9Y6K9); assay: Inhibition of IKKbeta expression in human THP1 cells at 20 to 100 uM by Western blotting method; format: functional, cell-based; details: THP-1

Papp B→A [9]: 1.59 ×10⁻⁶ cm/s
inhibition at 10 µM (CYP2C19): 6%
inhibition [10]: Active
SMILES: CCN(CC)Cc1c(O)c(OC)c(O)c2c1C(=O)O[C@@H]1[C@@H](O)[C@H](O)[C@@H](CO)O[C@@H]21
inhibition at 10 µM [1]: 53.7%
inhibition (Mus musculus [2]): Active
Activity (Mus musculus [3]): 3 µM
inhibition (Mus musculus [4]): Active
IC50 (THP-1 [5]): 77 µM
inhibition (Mus musculus [6]): Active
inhibition at 10 µM (THP-1 [7]): 41%
Activity (Mus musculus [8]): 275 pg/mL
